Results as given in US20210255193A1, “LYSINE REACTIVE PROBES AND USES THEREOF” (The Scripps Research Institute, priority 2017, published 2021).

How the values were obtained:
Test in all cases: competitive isoTOP-ABPP
Type in all cases: binding
[1] = biological target: T1, GOLGB1 Golgin subfamily B member 1 (Homo sapiens, UniProt Q14789); conditions: 50 uM, 231 sol, in vitro; for R value (DMSO/fragment) for probe 1 labeling: Q14789_K103
T1 construct: isoTOP-ABPP experiments performed in cell lysates (in vitro); endogenous in cells; host or cells: soluble proteome of human cancer cell lines (MDA-MB-231, Ramos, Jurkat)
T1 sequence (Q14789 whole entry, the tested form may be a part): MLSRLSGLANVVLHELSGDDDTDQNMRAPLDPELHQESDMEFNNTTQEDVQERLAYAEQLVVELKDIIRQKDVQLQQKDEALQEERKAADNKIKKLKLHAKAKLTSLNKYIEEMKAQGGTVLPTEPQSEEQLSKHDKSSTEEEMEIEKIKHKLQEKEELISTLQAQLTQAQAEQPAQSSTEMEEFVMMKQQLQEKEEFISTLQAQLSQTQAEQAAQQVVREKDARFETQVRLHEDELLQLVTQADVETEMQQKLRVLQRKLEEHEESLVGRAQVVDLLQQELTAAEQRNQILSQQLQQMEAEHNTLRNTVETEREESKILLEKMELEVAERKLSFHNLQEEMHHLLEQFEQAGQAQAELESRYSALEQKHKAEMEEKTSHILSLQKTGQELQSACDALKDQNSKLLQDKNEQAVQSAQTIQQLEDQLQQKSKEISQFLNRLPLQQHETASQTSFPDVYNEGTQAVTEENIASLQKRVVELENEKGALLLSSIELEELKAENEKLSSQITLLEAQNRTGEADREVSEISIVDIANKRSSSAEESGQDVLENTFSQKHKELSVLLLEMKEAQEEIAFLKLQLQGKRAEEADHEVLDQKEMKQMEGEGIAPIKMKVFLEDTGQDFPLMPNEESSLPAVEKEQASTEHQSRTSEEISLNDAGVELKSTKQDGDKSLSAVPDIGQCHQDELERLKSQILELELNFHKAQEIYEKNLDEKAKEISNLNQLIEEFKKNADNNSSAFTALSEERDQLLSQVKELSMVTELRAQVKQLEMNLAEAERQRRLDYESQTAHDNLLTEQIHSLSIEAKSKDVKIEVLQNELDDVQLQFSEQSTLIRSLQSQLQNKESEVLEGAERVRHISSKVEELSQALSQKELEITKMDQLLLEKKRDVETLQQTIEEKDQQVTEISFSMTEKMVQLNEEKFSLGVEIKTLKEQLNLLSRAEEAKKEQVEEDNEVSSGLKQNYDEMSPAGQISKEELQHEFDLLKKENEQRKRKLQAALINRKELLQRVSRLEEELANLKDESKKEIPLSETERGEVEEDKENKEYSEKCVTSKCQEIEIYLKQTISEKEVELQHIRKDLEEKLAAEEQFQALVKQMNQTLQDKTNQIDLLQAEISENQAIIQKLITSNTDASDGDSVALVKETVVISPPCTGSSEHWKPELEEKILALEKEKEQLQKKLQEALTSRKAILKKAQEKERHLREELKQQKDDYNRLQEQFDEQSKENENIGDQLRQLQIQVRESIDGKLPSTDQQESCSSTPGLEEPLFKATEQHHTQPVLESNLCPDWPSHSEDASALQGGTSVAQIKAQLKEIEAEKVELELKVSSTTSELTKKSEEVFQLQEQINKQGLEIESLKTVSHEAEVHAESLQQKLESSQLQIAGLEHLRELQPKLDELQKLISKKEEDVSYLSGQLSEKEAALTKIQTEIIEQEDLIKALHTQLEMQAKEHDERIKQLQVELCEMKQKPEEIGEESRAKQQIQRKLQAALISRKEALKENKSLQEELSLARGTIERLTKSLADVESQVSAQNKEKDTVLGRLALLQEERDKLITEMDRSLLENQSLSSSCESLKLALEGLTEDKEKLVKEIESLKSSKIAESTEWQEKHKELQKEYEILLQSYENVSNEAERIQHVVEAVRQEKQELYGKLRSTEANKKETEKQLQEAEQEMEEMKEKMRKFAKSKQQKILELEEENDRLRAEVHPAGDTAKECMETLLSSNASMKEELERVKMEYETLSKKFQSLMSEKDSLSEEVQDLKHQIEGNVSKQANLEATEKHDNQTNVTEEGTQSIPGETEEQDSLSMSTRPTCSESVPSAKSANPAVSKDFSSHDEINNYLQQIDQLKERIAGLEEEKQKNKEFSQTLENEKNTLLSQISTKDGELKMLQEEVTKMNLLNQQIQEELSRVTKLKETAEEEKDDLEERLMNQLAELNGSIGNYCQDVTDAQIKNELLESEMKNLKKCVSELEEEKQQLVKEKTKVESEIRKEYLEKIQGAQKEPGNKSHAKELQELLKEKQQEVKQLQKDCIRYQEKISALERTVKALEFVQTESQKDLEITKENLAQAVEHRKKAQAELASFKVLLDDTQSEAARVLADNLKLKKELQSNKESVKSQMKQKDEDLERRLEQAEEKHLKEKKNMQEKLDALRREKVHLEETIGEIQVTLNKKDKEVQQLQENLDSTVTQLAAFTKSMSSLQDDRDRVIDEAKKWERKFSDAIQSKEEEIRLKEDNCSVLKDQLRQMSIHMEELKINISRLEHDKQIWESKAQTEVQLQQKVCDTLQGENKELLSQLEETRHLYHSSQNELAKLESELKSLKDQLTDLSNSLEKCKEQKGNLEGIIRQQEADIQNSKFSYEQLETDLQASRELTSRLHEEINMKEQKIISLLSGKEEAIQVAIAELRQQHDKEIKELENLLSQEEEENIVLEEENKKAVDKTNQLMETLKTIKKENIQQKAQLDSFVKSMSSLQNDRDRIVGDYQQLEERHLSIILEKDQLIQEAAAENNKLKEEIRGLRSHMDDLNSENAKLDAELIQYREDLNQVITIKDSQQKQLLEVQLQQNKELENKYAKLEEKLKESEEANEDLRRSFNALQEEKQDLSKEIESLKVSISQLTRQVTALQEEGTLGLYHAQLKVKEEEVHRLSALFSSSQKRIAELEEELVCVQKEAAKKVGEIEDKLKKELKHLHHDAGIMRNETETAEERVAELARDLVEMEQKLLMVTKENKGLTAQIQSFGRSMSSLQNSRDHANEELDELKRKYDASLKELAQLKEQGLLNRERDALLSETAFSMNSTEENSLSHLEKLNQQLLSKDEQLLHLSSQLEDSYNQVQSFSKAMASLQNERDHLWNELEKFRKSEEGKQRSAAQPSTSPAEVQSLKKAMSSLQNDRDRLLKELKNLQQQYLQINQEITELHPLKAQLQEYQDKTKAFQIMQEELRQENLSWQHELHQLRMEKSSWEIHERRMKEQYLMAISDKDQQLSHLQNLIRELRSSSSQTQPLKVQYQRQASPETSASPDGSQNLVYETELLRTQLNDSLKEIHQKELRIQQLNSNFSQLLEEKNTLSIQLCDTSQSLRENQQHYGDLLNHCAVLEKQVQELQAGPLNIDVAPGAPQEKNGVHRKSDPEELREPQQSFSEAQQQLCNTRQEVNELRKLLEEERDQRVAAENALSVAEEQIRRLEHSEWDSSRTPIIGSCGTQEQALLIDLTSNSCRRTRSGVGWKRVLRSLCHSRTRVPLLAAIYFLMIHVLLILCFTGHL
Summary of the method: (§1)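 Fragments at 50 μM (activated esters) or 100 μM (guanidinylating agents) were incubated with 0.5 ml lysate before probe labeling. After 0.1 mM STP-alkyne for 1 h, samples were clicked to isotopically distinct TEV tags, and R taken as DMSO-over-compound MS1 peak-area ratio.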

FAH Fumarylacetoacetase = biological target: T2, FAH Fumarylacetoacetase (Homo sapiens, UniProt P16930); conditions: 50 uM, 231 sol, in vitro; for R value (DMSO/fragment) for probe 1 labeling: P16930_K241
T2 construct: isoTOP-ABPP experiments performed in cell lysates (in vitro); endogenous in cells; host or cells: soluble proteome of human cancer cell lines (MDA-MB-231; Ramos and Jurkat also prepared)
T2 sequence (P16930 1-419): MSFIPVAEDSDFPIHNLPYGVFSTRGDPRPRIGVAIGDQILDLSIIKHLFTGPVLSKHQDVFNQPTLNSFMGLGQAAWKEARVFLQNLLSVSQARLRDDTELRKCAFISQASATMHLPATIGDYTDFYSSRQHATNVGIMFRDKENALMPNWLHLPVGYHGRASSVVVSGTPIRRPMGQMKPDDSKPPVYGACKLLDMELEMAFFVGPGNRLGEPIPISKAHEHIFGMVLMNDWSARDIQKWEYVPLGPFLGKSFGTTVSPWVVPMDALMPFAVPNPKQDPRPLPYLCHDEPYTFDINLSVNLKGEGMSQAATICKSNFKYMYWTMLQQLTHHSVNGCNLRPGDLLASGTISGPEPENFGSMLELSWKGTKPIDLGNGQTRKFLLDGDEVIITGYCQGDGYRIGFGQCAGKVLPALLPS
Summary of the method: as §1

[2] = biological target: T3, PNPO Pyridoxine-5-phosphate oxidase (Homo sapiens, UniProt Q9NVS9); conditions: for blockade of probe 1 labeling of K100: PNPO K100; for R value (DMSO/fragment) for probe 1 labeling: Q9NVS9_K100; for R value (DMSO/fragment) for probe 1 labeling / isoTOP-ABPP reactivity ratio at lysine Q9NVS9_K100: 50 uM, 231 sol, in vitro
T3 construct: endogenous in cells; host or cells: MDA-MB-231 (soluble fraction of lysate)
T3 sequence (Q9NVS9 1-261): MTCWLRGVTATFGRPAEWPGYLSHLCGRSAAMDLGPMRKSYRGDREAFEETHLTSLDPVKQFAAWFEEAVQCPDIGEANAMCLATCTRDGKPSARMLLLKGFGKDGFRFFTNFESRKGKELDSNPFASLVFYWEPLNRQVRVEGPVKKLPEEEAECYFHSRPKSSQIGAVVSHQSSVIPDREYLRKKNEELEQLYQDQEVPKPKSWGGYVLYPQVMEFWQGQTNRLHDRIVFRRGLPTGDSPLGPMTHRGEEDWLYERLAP
Summary of the method: as §1

[3] = biological target: T4, UCHL5 Ubiquitin carboxyl-terminal hydrolase isozyme L5 (Homo sapiens, UniProt Q9Y5K5); conditions: 50 uM, 231 sol, in vitro; for R value (DMSO/fragment) for probe 1 labeling: Q9Y5K5_K323
T4 construct: endogenous in cells; host or cells: MDA-MB-231 (soluble fraction of lysate)
T4 sequence (Q9Y5K5 1-329): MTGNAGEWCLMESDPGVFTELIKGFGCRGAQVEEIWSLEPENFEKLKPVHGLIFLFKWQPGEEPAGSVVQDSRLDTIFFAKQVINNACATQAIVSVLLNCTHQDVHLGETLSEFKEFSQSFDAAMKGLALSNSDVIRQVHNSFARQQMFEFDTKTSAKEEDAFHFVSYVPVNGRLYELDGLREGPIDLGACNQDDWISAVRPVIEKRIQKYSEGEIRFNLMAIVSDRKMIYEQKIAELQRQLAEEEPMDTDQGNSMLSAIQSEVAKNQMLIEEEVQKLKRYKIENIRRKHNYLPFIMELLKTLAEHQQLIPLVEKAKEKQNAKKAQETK
Summary of the method: as §1

EEF2 Elongation factor 2 = biological target: T5, EEF2 Elongation factor 2 (Homo sapiens, UniProt P13639); conditions: 50 uM, 231 sol, in vitro
T5 construct: isoTOP-ABPP experiments performed in cell lysates (in vitro); endogenous in cells; host or cells: soluble proteome of human cancer cell lines (MDA-MB-231; Ramos and Jurkat also prepared)
Summary of the method: as §1

[4] = biological target: T6, NPEPPS Puromycin-sensitive aminopeptidase (Homo sapiens, UniProt P55786); conditions: 50 uM, 231 sol, in vitro; for R value (DMSO/fragment) for probe 1 labeling: P55786_K712
T6 construct: isoTOP-ABPP experiments performed in cell lysates (in vitro); endogenous in cells; host or cells: soluble proteome of human cancer cell lines (MDA-MB-231, Ramos, Jurkat)
T6 sequence (P55786 whole entry, the tested form may be a part): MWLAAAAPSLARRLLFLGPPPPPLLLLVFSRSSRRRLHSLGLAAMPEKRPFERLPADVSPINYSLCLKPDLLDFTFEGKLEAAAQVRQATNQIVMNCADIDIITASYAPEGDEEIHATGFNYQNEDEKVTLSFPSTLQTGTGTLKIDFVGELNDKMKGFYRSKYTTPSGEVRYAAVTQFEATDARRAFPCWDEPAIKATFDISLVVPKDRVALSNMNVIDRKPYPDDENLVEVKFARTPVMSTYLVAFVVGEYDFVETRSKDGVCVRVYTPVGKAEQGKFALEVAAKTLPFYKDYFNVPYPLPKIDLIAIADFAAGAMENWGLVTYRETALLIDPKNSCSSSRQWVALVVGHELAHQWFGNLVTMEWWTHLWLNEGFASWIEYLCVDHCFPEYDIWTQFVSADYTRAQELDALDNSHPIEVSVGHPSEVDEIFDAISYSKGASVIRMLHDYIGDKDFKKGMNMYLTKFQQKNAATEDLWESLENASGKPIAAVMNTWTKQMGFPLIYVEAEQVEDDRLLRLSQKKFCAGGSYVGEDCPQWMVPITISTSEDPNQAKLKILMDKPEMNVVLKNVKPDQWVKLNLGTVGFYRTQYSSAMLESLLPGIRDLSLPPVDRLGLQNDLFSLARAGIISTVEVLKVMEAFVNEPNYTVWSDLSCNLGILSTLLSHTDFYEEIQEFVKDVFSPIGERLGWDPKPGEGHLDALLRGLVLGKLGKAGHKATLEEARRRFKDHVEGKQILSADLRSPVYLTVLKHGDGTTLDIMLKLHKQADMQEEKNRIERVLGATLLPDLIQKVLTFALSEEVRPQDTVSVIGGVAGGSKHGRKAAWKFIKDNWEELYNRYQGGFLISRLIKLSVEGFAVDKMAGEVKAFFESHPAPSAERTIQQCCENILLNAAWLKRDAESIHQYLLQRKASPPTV
Summary of the method: as §1

| R value (DMSO/fragment) for probe 1 labeling [1] | R value (DMSO/fragment) for probe 1 labeling (FAH Fumarylacetoacetase) | blockade of probe 1 labeling of K100 [2] | R value (DMSO/fragment) for probe 1 labeling [2] | R value (DMSO/fragment) for probe 1 labeling [3] | R value (DMSO/fragment) for probe 1 labeling (EEF2 Elongation factor 2; P13639_K235) | R value (DMSO/fragment) for probe 1 labeling (EEF2 Elongation factor 2; P13639_K318) | R value (DMSO/fragment) for probe 1 labeling [4] | isoTOP-ABPP reactivity ratio at lysine Q14789_K103 [1] | isoTOP-ABPP reactivity ratio at lysine P16930_K241 (FAH Fumarylacetoacetase) | isoTOP-ABPP reactivity ratio at lysine Q9NVS9_K100 [2] | isoTOP-ABPP reactivity ratio at lysine P13639_K235 (EEF2 Elongation factor 2) | isoTOP-ABPP reactivity ratio at lysine P55786_K712 [4] | SMILES | isoTOP-ABPP reactivity ratio at lysine Q9Y5K5_K323 [3] | isoTOP-ABPP reactivity ratio at lysine P13639_K318 (EEF2 Elongation factor 2) |
| --- | --- | --- | --- | --- | --- | --- | --- | --- | --- | --- | --- | --- | --- | --- | --- |
| 0.9 | 2.5 | fully blocking probe 1 labeling | 20.0 | 1.1 | 1.2 | 1.1 | 1.0 |  |  |  |  |  | O=C(CCc1cn(-c2ccccc2)nc1-c1ccccc1)Oc1c(F)c(F)c(F)c(F)c1F [fragment 19, Pentafluorophenyl 3-(1,3-diphenyl-1H-pyrazol-4-yl)propanoate] |  |  |
| 1.0 | 1.0 |  | 0.9 | 0.9 | 1.1 | 1.1 | 0.9 |  |  |  |  |  | O=C(Oc1c(F)c(F)c(F)c(F)c1F)C(c1ccccc1)c1ccccc1 [fragment 20, Pentafluorophenyl 2,2-diphenylacetate] |  |  |
| 1.0 | 3.0 | fully blocking probe 1 labeling | 20.0 | 0.8 | 2.9 | 5.6 | 1.3 |  |  |  |  |  | Cn1cc(CC(=O)Oc2c(F)c(F)c(F)c(F)c2F)c2ccccc21 [fragment 22, Pentafluorophenyl 2-(1-methyl-1H-indol-3-yl)acetate] |  |  |
|  |  |  |  |  |  |  |  | 1.0 | 5.2 | 1.0 | 1.9 | 1.1 | O=C(Oc1c(F)c(F)c(F)c(F)c1F)c1ccc2ccccc2n1 [fragment 25, Pentafluorophenyl quinoline-2-carboxylate] |  | 2.3 |
|  |  |  |  |  |  |  |  | 1.3 | 1.8 | 1.0 | 5.7 | 1.2 | O=C(CN1C(=O)c2ccccc2C1=O)Oc1c(F)c(F)c(F)c(F)c1F [fragment 27, Pentafluorophenyl 2-(1,3-dioxoisoindolin-2-yl)acetate] | 1.1 |  |
|  |  |  |  |  |  |  |  | 0.9 | 2.5 | 0.9 | 1.4 | 1.0 | CCn1cc(C(=O)Oc2c(F)c(F)c(F)c(F)c2F)c(=O)c2ccc(C)nc21 [fragment 28, Pentafluorophenyl 1-ethyl-7-methyl-4-oxo-1,4-dihydro-1,8-naphthyridine-3-carboxylate] | 1.2 | 1.6 |

The next lines start with the molecule.

| SMILES | R value (DMSO/fragment) for probe 1 labeling [1] | R value (DMSO/fragment) for probe 1 labeling (FAH Fumarylacetoacetase) | blockade of probe 1 labeling of K100 [2] | R value (DMSO/fragment) for probe 1 labeling [2] | R value (DMSO/fragment) for probe 1 labeling [3] | R value (DMSO/fragment) for probe 1 labeling (EEF2 Elongation factor 2; P13639_K235) | R value (DMSO/fragment) for probe 1 labeling (EEF2 Elongation factor 2; P13639_K318) | R value (DMSO/fragment) for probe 1 labeling [4] | isoTOP-ABPP reactivity ratio at lysine Q14789_K103 [1] | isoTOP-ABPP reactivity ratio at lysine P16930_K241 (FAH Fumarylacetoacetase) | isoTOP-ABPP reactivity ratio at lysine Q9NVS9_K100 [2] | isoTOP-ABPP reactivity ratio at lysine P13639_K235 (EEF2 Elongation factor 2) | isoTOP-ABPP reactivity ratio at lysine P55786_K712 [4] | isoTOP-ABPP reactivity ratio at lysine Q9Y5K5_K323 [3] | isoTOP-ABPP reactivity ratio at lysine P13639_K318 (EEF2 Elongation factor 2) |
| --- | --- | --- | --- | --- | --- | --- | --- | --- | --- | --- | --- | --- | --- | --- | --- |
| O=C(Oc1c(F)c(F)c(F)c(F)c1F)c1cc(C(F)(F)F)cc(C(F)(F)F)c1 [fragment 21, Pentafluorophenyl 3,5-bis(trifluoromethyl)benzoate] | 1.0 | 2.0 |  | 0.9 | 1.0 | 1.1 | 1.2 | 0.9 |  |  |  |  |  |  |  |
| COc1cc(CCC(=O)Oc2c(F)c(F)c(F)c(F)c2F)cc(OC)c1OC [fragment 23, Pentafluorophenyl 3-(3,4,5-trimethoxyphenyl)propanoate] | 1.0 | 2.8 |  | 1.8 |  | 1.6 | 1.6 | 1.2 |  |  |  |  |  |  |  |
| O=C(Oc1c(F)c(F)c(F)c(F)c1F)C1CCN(C(=O)OCc2ccccc2)CC1 [fragment 24, 1-Benzyl 4-(pentafluorophenyl) piperidine-1,4-dicarboxylate] |  |  |  |  |  |  |  |  | 1.0 | 1.1 | 0.9 | 1.1 | 1.0 | 0.8 | 1.2 |
| O=C(CCc1coc2cc(F)ccc2c1=O)Oc1c(F)c(F)c(F)c(F)c1F [fragment 26, Pentafluorophenyl 3-(7-fluoro-4-oxo-4H-chromen-3-yl)propanoate] |  |  |  |  |  |  |  |  | 1.1 | 5.0 | 1.4 | 1.3 | 1.2 | 1.1 | 1.1 |
| O=C(CCc1cn(-c2ccccc2)nc1-c1ccccc1)Oc1ccc([N+](=O)[O-])cc1[N+](=O)[O-] [fragment 29, 2,4-Dinitrophenyl 3-(1,3-diphenyl-1H-pyrazol-4-yl)propanoate] |  |  |  |  |  |  |  |  | 1.1 | 1.7 | 1.9 | 1.0 | 1.1 | 1.1 | 0.9 |
| O=C(Oc1ccc([N+](=O)[O-])cc1[N+](=O)[O-])C(c1ccccc1)c1ccccc1 [fragment 30, 2,4-Dinitrophenyl 2,2-diphenylacetate] |  |  |  |  |  |  |  |  | 1.4 | 2.7 | 1.0 | 1.4 | 1.5 | 1.1 | 1.4 |
| O=C(Oc1ccc([N+](=O)[O-])cc1[N+](=O)[O-])c1cc(C(F)(F)F)cc(C(F)(F)F)c1 [fragment 31, 2,4-Dinitrophenyl 3,5-bis(trifluoromethyl)benzoate] |  |  |  |  |  |  |  |  | 0.9 | 20.0 | 1.0 | 1.1 | 1.1 | 1.0 | 1.2 |
| Cn1cc(CC(=O)Oc2ccc([N+](=O)[O-])cc2[N+](=O)[O-])c2ccccc21 [fragment 32, 2,4-Dinitrophenyl 2-(1-methyl-1H-indol-3-yl)acetate] |  |  |  |  |  |  |  |  | 7.0 | 2.2 | 3.6 | 1.4 | 1.4 | 1.0 | 1.5 |
